Experimental data from patent publication EP3355943B1, “METHODS AND SYSTEMS FOR TREATING MEDICAL DEVICES AND FLUIDS” (Ethicon, Inc., priority 2015, dated 2017).

Assay: Effect of storage (dwell time) on efficacy of pre-mixed CaSt suspensions, sonicated or vortexed
Type: biochemical
Procedure: Efficacy of pre-mixed CaSt suspensions (sonicated and vortexed) was tested, comparing efficacy of immediately prepared suspensions with suspensions having shelf life or dwell time of 90 min, 5 days, and 1 month prior to contact with endotoxin containing solutions.
10 mL SRW was then introduced to the sonicated CaSt mixture. It was then vortexed for 5 seconds to fully incorporate the sonicated CaSt. The mixture was then tested after 15 minutes of interaction to measure the percent decrease of endotoxin.
10 mL SRW was then introduced to the vortexed CaSt mixture. It was then vortexed for 5 seconds to fully incorporate the sonicated CaSt. The mixture was then tested after 15 minutes of interaction to measure the percent decrease of endotoxin.
These mixtures were then tested on the Charles River MCS at a dilution of 1:2000 after 15 minutes of interaction.
Testing of suspensions having shelf life or dwell time of 90 min, 5 days, and 1 month prior to contact with endotoxin containing solutions.
Test samples were prepared as described above, sonicated and vortexed, but were subjected to shelf life or dwell time of 90 min, 5 days, and 1 month prior to contact with endotoxin containing solution (SRW). After dwell time exposure, similarly to the immediate mixing test above, 10 mL SRW was then introduced to the sonicated or vortexed CaSt mixture. It was then vortexed for 5 seconds to fully incorporate the sonicated CaSt. The mixture was then tested after 15 minutes of interaction to measure the percent decrease of endotoxin. These mixtures were then tested on the Charles River MCS at a dilution of 1:2000 after 15 minutes of interaction.
*The 1 month shelf life sample was only tested at 0.04g CaSt and measured the percent removal after 15 minutes of interaction as well as 30 minutes after interaction.

SMILES: CCCCCCCCCCCCCCCCCC(=O)O [Calcium Stearate]
- Average Percent Change (0.02 g CaSt, Vortexed, Immediate Mixing): 32%
- EU After (0.02 g CaSt, Vortexed, Immediate Mixing, 15 minutes, EU Before 36,100, listed as Aged Vortexed CaSt #1): 29,200 EU
- EU After (0.02 g CaSt, Vortexed, Immediate Mixing, 15 minutes, EU Before 36,100, listed as Aged Vortexed CaSt #2): 20,480 EU
- Percent Endotoxin Removed (0.02 g CaSt, Vortexed, Immediate Mixing, listed as Aged Vortexed CaSt #1): 20%
- Percent Endotoxin Removed (0.02 g CaSt, Vortexed, Immediate Mixing, listed as Aged Vortexed CaSt #2): 43%
- EU After (0.04 g CaSt, Sonicated, Immediate Mixing with 10 mL SRW, 15 minutes, EU Before 36,100, listed as Sonicated CaSt #1): 5,320 EU
- EU After (0.04 g CaSt, Sonicated, Immediate Mixing with 10 mL SRW, 15 minutes, EU Before 36,100, listed as Sonicated CaSt #2): 5,800 EU
- Average Percent Change (0.04 g CaSt, Sonicated, Immediate Mixing, 15 minutes): 85%
- Percent Endotoxin Removed (0.04 g CaSt, Sonicated, Immediate Mixing, 15 minutes, listed as Sonicated CaSt #1): 85%
- Percent Endotoxin Removed (0.04 g CaSt, Sonicated, Immediate Mixing, 15 minutes, listed as Sonicated CaSt #2): 84%
- Average Percent Change (0.04 g CaSt, Sonicated, Mixing after 1 Month dwell time): 50%
- EU After (0.04 g CaSt, Sonicated, Mixing after 1 Month dwell time, 15 minutes, EU Before 14650, listed as Aged Sonicated CaSt #1): 7440 EU
- EU After (0.04 g CaSt, Sonicated, Mixing after 1 Month dwell time, 15 minutes, EU Before 14650, listed as Aged Sonicated CaSt #2): 7240 EU
- Percent Endotoxin Removed (0.04 g CaSt, Sonicated, Mixing after 1 Month dwell time, listed as Aged Sonicated CaSt #1): 49.2%
- Percent Endotoxin Removed (0.04 g CaSt, Sonicated, Mixing after 1 Month dwell time, listed as Aged Sonicated CaSt #2): 50.6%
- Average Percent Change (0.04 g CaSt, Sonicated, Mixing after 5 Days dwell time): 85%
- EU After (0.04 g CaSt, Sonicated, Mixing after 5 Days dwell time, 15 minutes, EU Before 37,800, listed as Aged Sonicated CaSt #3): 5,040 EU
- EU After (0.04 g CaSt, Sonicated, Mixing after 5 Days dwell time, 15 minutes, EU Before 37,800, listed as Aged Sonicated CaSt #4): 6,560 EU
- Percent Endotoxin Removed (0.04 g CaSt, Sonicated, Mixing after 5 Days dwell time, listed as Aged Sonicated CaSt #3): 87%
- Percent Endotoxin Removed (0.04 g CaSt, Sonicated, Mixing after 5 Days dwell time, listed as Aged Sonicated CaSt #4): 83%
- Average Percent Change (0.04 g CaSt, Sonicated, Mixing after 90 min dwell time): 81%
- EU After (0.04 g CaSt, Sonicated, Mixing after 90 min dwell time, 15 minutes, EU Before 36,100, listed as Aged Sonicated CaSt #1): 6168 EU
- EU After (0.04 g CaSt, Sonicated, Mixing after 90 min dwell time, 15 minutes, EU Before 36,100, listed as Aged Sonicated CaSt #2): 8,000 EU
- Percent Endotoxin Removed (0.04 g CaSt, Sonicated, Mixing after 90 min dwell time, listed as Aged Sonicated CaSt #1): 83%
- Percent Endotoxin Removed (0.04 g CaSt, Sonicated, Mixing after 90 min dwell time, listed as Aged Sonicated CaSt #2): 78%
- Average Percent Change (0.04 g CaSt, Vortexed, Immediate Mixing): 44%
- EU After (0.04 g CaSt, Vortexed, Immediate Mixing, 15 minutes, EU Before 36,100, listed as Aged Vortexed CaSt #1): 19,840 EU
- EU After (0.04 g CaSt, Vortexed, Immediate Mixing, 15 minutes, EU Before 36,100, listed as Aged Vortexed CaSt #2): 20480 EU
- Percent Endotoxin Removed (0.04 g CaSt, Vortexed, Immediate Mixing, listed as Aged Vortexed CaSt #1): 45%
- Percent Endotoxin Removed (0.04 g CaSt, Vortexed, Immediate Mixing, listed as Aged Vortexed CaSt #2): 43%
- Average Percent Change (0.04 g CaSt, Vortexed, Mixing after 5 Days dwell time): 75%
- EU After (0.04 g CaSt, Vortexed, Mixing after 5 Days dwell time, 15 minutes, EU Before 37,800, listed as Aged Vortexed CaSt #3): 9,080 EU
- EU After (0.04 g CaSt, Vortexed, Mixing after 5 Days dwell time, 15 minutes, EU Before 37,800, listed as Aged Vortexed CaSt #4): 9,760 EU
- Percent Endotoxin Removed (0.04 g CaSt, Vortexed, Mixing after 5 Days dwell time, listed as Aged Vortexed CaSt #3): 76%
- Percent Endotoxin Removed (0.04 g CaSt, Vortexed, Mixing after 5 Days dwell time, listed as Aged Vortexed CaSt #4): 74%
- Average Percent Change (0.04 g CaSt, Vortexed, Mixing after 90 min dwell time): 54%
- EU After (0.04 g CaSt, Vortexed, Mixing after 90 min dwell time, 15 minutes, EU Before 36,100, listed as Aged Vortexed CaSt #1): 17,120 EU
- EU After (0.04 g CaSt, Vortexed, Mixing after 90 min dwell time, 15 minutes, EU Before 36,100, listed as Aged Vortexed CaSt #2): 16,460 EU
- Percent Endotoxin Removed (0.04 g CaSt, Vortexed, Mixing after 90 min dwell time, listed as Aged Vortexed CaSt #1): 53%
- Percent Endotoxin Removed (0.04 g CaSt, Vortexed, Mixing after 90 min dwell time, listed as Aged Vortexed CaSt #2): 54%
